According to patent publication US10294228B2, “Breathing control modulating compounds, and methods of making and using same” (NEURAD LTD., priority 2015, dated 2019):

Assay: Polymorphic transformation by exposure to humidity
Type: physicochemical
Conditions: >80% humidity, three days, ambient temperature; confirmed by XRPD and DSC
Protocol: Approximately 10 mg of the solid as its initially obtained polymorphic form were placed in a 4 mL open vial. In a 20 mL vial, about 5 mL of distilled water were added and heated to about 50° C., then the vial was capped, and the contents were cooled for about 30 minutes at ambient temperature. Then the 20 mL vial was uncapped, the smaller vial was placed inside the bigger vial, the bigger vial was recapped, and the sample in the smaller vial was exposed and aged in an environment of approximately 80-95% relative humidity at ambient temperature for 3 days. Polymorphic transformation was confirmed by XRPD and DSC vs. that for the initially obtained polymorphic form.

Row | polymorphic transformation on exposure to humidity | Compound
1 | converted to form Tos-B (31h-2) | CCCNc1nc(NC)nc2c(NCC(C)(C)O)nc(NC)nc12 [Compound 31h-1, 1-(2,6-Bis-methylamino-8-propylamino-pyrimido[5,4-d]pyrimidin-4-ylamino)-2-methyl-propan-2-ol]
2 | converted to form Mal-B (31d-2) | CCCNc1nc(NC)nc2c(NCC(C)(C)O)nc(NC)nc12 [Compound 31d-1, 1-(2,6-Bis-methylamino-8-propylamino-pyrimido[5,4-d]pyrimidin-4-ylamino)-2-methyl-propan-2-ol]
